Experimental data: US3946003A, “Hydroxy substituted phenylglycylamido-3-heterocyclic thiomethyl cephalosporins” (Eli Lilly and Company, priority 1974, dated 1976)
Values after ≈ are worked out from the molar mass of the structure shown.

Assays:
Escherichia coli = assay: Antibacterial activity, MIC by Gradient-plate technique; assay type: cell-based; conditions: for MIC: read-out: Minimum Inhibitory Concentration
Excerpt: (§1) The cephalosporin compounds of this invention (Formula I, R1 =H) are orally effective broad spectrum antibiotics which are useful in controlling infections caused by gram-positive and gram-negative bacteria. […] In Table I, below, the antibacterial activity of the compounds of formula I wherein R1 is hydrogen is illustrated. The bacteria are gram-negative bacteria and the activity is presented as minimum inhibitory concentrations in micrograms per milliliter (mcg./ml.). The activity was obtained by the Gradient-plate technique.

Pseudomonas aeruginosa = assay: as above; assay type: cell-based; conditions: for MIC: read-out: Minimum Inhibitory Concentration
Excerpt: as §1

Klebsiella pneumoniae = assay: as above; assay type: cell-based; conditions: for MIC: read-out: Minimum Inhibitory Concentration
Excerpt: as §1

Shigella sp. = assay: as above; assay type: cell-based; conditions: for MIC: read-out: Minimum Inhibitory Concentration
Excerpt: as §1

Serratia marcescens = assay: as above; assay type: cell-based; conditions: for MIC: read-out: Minimum Inhibitory Concentration
Excerpt: as §1

Aerobacter aerogenes = assay: as above; assay type: cell-based; conditions: for MIC: Klebsiella aerogenes, read-out: Minimum Inhibitory Concentration
Excerpt: as §1

Salmonella heidelberg = assay: as above; assay type: cell-based; conditions: for MIC: Salmonella enterica, read-out: Minimum Inhibitory Concentration
Excerpt: as §1

[1] = Duration of antibiotic blood levels in mice after single oral dose (agar disc-plate assay, Sarcina lutea); assay type: in vivo; conditions: mouse, single oral dose 20 mg./kg.; for concentration at 10 min: 10 min post administration; for concentration at 20 min: 20 min post administration; for concentration at 0.5 h: 30 min post administration; for concentration at 1 h: 60 min post administration; for concentration at 1.5 h: 90 min post administration; for Cmax: read-out: peak blood level; for concentration at 2 h: 120 min post administration
Description: The determinations were carried out in groups of 3 or 4 mice as indicated in the table and the results averaged. At the indicated time intervals post administration, blood samples were withdrawn at the orbital sinus from each mouse in the test group and assayed for the concentration of antibiotic. […]

Proteus mirabilis PR6 = assay: Oral therapy of experimental infections in mice; assay type: in vivo; conditions: oral (gavage) at 1 and 5 hours post infection, read-out: Effective Dose (ED50)
Description: (§2) In Table II, the respective effective doses (ED50) for these antibiotics is presented. The data were obtained in mice infected with the indicated microorganism following oral administration of the antibiotics at 1 and 5 hours post infection.
(§3) ^1 mg./kg. × 2 oral doses (gavage) at 1 and 5 hours post

[2] = test system: Diplococcus pneumoniae Park I; assay: Oral therapy of experimental infections in mice; assay type: in vivo; conditions: Streptococcus pneumoniae, oral (gavage) at 1 and 5 hours post infection, read-out: Effective Dose (ED50)
Description: as §2, §3

[3] = test system: Streptococcus pyogenes C203; assay: Oral therapy of experimental infections in mice; assay type: in vivo; conditions: for ED50: Streptococcus pyogenes C203, mice, oral (gavage) at 1 and 5 hours post infection, read-out: Effective Dose (ED50)
Description: as §2, §3

Escherichia coli EC14 = assay: Oral therapy of experimental infections in mice; assay type: in vivo; conditions: oral (gavage) at 1 and 5 hours post infection, read-out: Effective Dose (ED50)
Description: as §2, §3

physchem = conditions: 6% dmf

Compound | concentration at 10 min [1] [ng/mL] | concentration at 20 min [1] [ng/mL] | concentration at 0.5 h [1] [ng/mL] | concentration at 1 h [1] [ng/mL] | concentration at 1.5 h [1] [ng/mL] | Cmax [1] [ng/mL] | ED50 (Proteus mirabilis PR6) [mg/kg] | ED50 [2] [mg/kg] | ED50 [3] [mg/kg] | ED50 (Escherichia coli EC14) [mg/kg] | MIC (Escherichia coli) [µg/mL] | MIC (Pseudomonas aeruginosa) [µg/mL] | MIC (Klebsiella pneumoniae) [µg/mL] | MIC (Shigella sp.) [µg/mL] | MIC (Serratia marcescens) [µg/mL] | MIC (Aerobacter aerogenes) [µg/mL] | MIC (Salmonella heidelberg) [µg/mL] | concentration at 2 h [1] [ng/mL] | further results
7β-(D-4-hydroxyphenylglycylamido)-3-(1-methyl-1H-tetrazole-5-ylthiomethyl)-3-cephem-4-carboxylic acid | – | – | – | – | – | – | – | – | – | – | – | – | – | – | – | – | – | – | Minimum Inhibitory Concentration (Escherichia coli): 0.9 µg/mL; Minimum Inhibitory Concentration (Pseudomonas aeruginosa): 120 µg/mL; Minimum Inhibitory Concentration (Klebsiella pneumoniae): 0.6 µg/mL; Minimum Inhibitory Concentration (Shigella sp.): 0.8 µg/mL; Minimum Inhibitory Concentration (Serratia marcescens): 5.0 µg/mL; Minimum Inhibitory Concentration (Aerobacter aerogenes): 0.9 µg/mL; Minimum Inhibitory Concentration (Salmonella heidelberg): 0.8 µg/mL
Cc1nnc(SCC2=C(C(=O)O)N3C(=O)C(NC(=O)C(N)c4ccccc4)C3SC2)s1 (stereo not drawn) [compound 4, reference compound] | 1980 | 3380 | 3990 | 2340 | 1610 | ~4000 | 20.7 | 5.2 | 1.15 | 6.9 | – | – | – | – | – | – | – | – | –
Cn1nnnc1SCC1=C(C(=O)O)N2C(=O)[C@@H](NC(=O)[C@H](N)c3ccc(O)cc3)[C@H]2SC1 [compound 1, 7β-(4-hydroxyphenylglycylamido)-3-(1-methyl-1H-tetrazole-5-ylthiomethyl)-3-cephem-4-carboxylic acid] | 2560 | 5780 | 8550 | 8880 | 6940 | ~8900 | < 4.5 | < 1.1 | 0.18 | 3.7 | 1 (≈ 2.09 µM) | > 200 | 1 (≈ 2.09 µM) | 0.8 (≈ 1.68 µM) | 12.5 (≈ 26.2 µM) | 0.7 (≈ 1.47 µM) | 0.6 (≈ 1.26 µM) | 5360 | –
Cc1nnc(SCC2=C(C(=O)O)N3C(=O)[C@@H](NC(=O)[C@H](N)c4ccc(O)cc4)[C@H]3SC2)s1 [compound 3, 7β-(D-4-hydroxyphenylglycylamido)-3-(5-methyl-1,3,4-thiadiazol-2-ylthiomethyl)-3-cephem-4-carboxylic acid] | 10600 | 13200 | 13900 | 14300 | 9800 | ~14300 | < 4.5 | < 1.1 | 0.08 | 2.1 | 2.5 (≈ 5.06 µM) | > 200 | 1 (≈ 2.03 µM) | 2 (≈ 4.05 µM) | 47.5 (≈ 96.2 µM) | 1 (≈ 2.03 µM) | 1 (≈ 2.03 µM) | 5200 | pKa (physchem; pKa (first)): 4.4; pKa (physchem; pKa (second)): 7.6; pKa (physchem; pKa (third)): 12.2; ED50 times lower than that exhibited by compound No. 4 ([3]; S. pyogenes infections in mice, 1.15/0.08): approximately 14 times; ED50 times lower than that exhibited by compound No. 2 ([3]; S. pyogenes infections in mice, 4.05/0.08): approximately 50 times
Cn1nnnc1SCC1=C(C(=O)O)N2C(=O)C(NC(=O)C(N)c3ccccc3)C2SC1 (stereo not drawn) [compound 2, reference compound] | 260 | 750 | 1170 | 890 | 1090 | ~1200 | – | – | 4.05 | 8.4 | – | – | – | – | – | – | – | – | –
